One test deals with Carbonic anhydrase 1 (Homo sapiens, UniProt P00915). Briefly: Inhibition of recombinant human carbonic anhydrase 1 incubated for 15 mins prior to testing measured for 10 to 100 secs by phenol red-based stopped-flow CO2 hydration assay.
The next test has as its target Carbonic anhydrase 2 (Homo sapiens, UniProt P00918). Nature of the test: Inhibition of recombinant human carbonic anhydrase 2 incubated for 15 mins prior to testing measured for 10 to 100 secs by phenol red-based stopped-flow CO2 hydration assay.
A further test has as its target Carbonic anhydrase 4 (Homo sapiens, UniProt P22748). Nature of the test: Inhibition of recombinant human carbonic anhydrase 4 incubated for 15 mins prior to testing measured for 10 to 100 secs by phenol red-based stopped-flow CO2 hydration assay.
The species entered for the next test is Homo sapiens. Nature of the test: Selectivity ratio of Ki for inhibition of recombinant human carbonic anhydrase 2 to Ki for Ki for inhibition of recombinant human carbonic anhydrase 9.
A further test addresses Carbonic anhydrase 9 (Homo sapiens, UniProt Q16790). Nature of the test: Inhibition of recombinant human carbonic anhydrase 9 incubated for 15 mins prior to testing measured for 10 to 100 secs by phenol red-based stopped-flow CO2 hydration assay.

Carbonic anhydrase 1, sequence (P00915 whole entry): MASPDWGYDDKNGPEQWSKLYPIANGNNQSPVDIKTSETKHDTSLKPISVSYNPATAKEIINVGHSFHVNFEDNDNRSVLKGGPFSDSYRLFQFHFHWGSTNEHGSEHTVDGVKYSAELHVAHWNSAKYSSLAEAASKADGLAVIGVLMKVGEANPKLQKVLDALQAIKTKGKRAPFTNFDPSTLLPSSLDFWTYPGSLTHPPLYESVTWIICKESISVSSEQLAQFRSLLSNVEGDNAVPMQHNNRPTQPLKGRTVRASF
Carbonic anhydrase 4, sequence (P22748 whole entry): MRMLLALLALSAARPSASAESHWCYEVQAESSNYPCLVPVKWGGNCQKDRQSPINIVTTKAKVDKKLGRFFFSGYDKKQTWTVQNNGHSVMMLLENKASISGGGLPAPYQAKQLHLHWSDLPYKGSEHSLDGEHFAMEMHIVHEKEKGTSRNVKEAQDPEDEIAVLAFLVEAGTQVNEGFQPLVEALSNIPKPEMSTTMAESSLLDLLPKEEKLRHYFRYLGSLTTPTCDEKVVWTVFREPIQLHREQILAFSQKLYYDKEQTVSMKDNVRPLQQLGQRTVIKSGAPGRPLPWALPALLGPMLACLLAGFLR

As a reminder, the Ki is the equilibrium dissociation constant of an inhibitor or competing ligand from its target. `NS(=O)(=O)Oc1ccc(NC(=O)N2CCN(c3ccc(Cl)c(Cl)c3)CC2)cc1`: the Ki at Carbonic anhydrase 1 was determined as 919 nM; at Carbonic anhydrase 2 it was 45.4 nM; on Carbonic anhydrase 4, 1640 nM.
Consider `Cc1cccc(N2CCN(C(=O)Nc3ccc(OS(N)(=O)=O)cc3)CC2)c1`, for which, in the test filed under Homo sapiens, the Ratio Ki stood at 16.
Consider `CCCCCCCCCCN1CCN(C(=O)Nc2ccc(OS(N)(=O)=O)cc2)CC1`, for which the Ki on Carbonic anhydrase 1 worked out at 680 nM; on Carbonic anhydrase 2, 21 nM; on Carbonic anhydrase 4 it was 4190 nM; at Carbonic anhydrase 9, 32200 nM.
As to `COc1ccc(-c2ccnc(N3CCN(C(=O)Nc4ccc(OS(N)(=O)=O)cc4)CC3)n2)cc1`, the Ki at Carbonic anhydrase 1 was found to be 3930 nM; on Carbonic anhydrase 2, 29.1 nM; at Carbonic anhydrase 4 it was 384 nM; at Carbonic anhydrase 9, 31800 nM.
On to `Cc1ccccc1N1CCN(C(=O)Nc2ccc(OS(N)(=O)=O)cc2)CC1`, for which the Ki came out at 692 nM at Carbonic anhydrase 1, 56.9 nM on Carbonic anhydrase 2, 759 nM on Carbonic anhydrase 4 and 29700 nM at Carbonic anhydrase 9.
For `NS(=O)(=O)Oc1ccc(NC(=O)N2CCN(c3nccc(-c4cccc(C(F)(F)F)c4)n3)CC2)cc1`, the Ki on Carbonic anhydrase 1 was 3470 nM; at Carbonic anhydrase 2, 58.7 nM; on Carbonic anhydrase 4, 458 nM; at Carbonic anhydrase 9, 27100 nM.
On to `NS(=O)(=O)Oc1ccc(NC(=O)N2CCN(c3ccc(Cl)cc3)CC2)cc1`, for which the Ki on Carbonic anhydrase 4 was found to be 2590 nM.
For `NS(=O)(=O)Oc1ccc(NC(=O)N2CCN(c3nccc(-c4ccccc4)n3)CC2)cc1`, the Ki turned out to be 2370 nM at Carbonic anhydrase 1, 706 nM on Carbonic anhydrase 2, 4100 nM at Carbonic anhydrase 4 and 156000 nM at Carbonic anhydrase 9.
As for `COc1cc(-c2ccnc(N3CCN(C(=O)Nc4ccc(OS(N)(=O)=O)cc4)CC3)n2)cc(OC)c1OC`, the Ki on Carbonic anhydrase 1 turned out to be 5280 nM; on Carbonic anhydrase 2 it was 6.8 nM; on Carbonic anhydrase 4 it was 280 nM; on Carbonic anhydrase 9, 24200 nM.
As to `COc1cccc(N2CCN(C(=O)Nc3ccc(OS(N)(=O)=O)cc3)CC2)c1`, on Carbonic anhydrase 4, the Ki stood at 994 nM.
On to `Cc1cccc(-c2ccnc(N3CCN(C(=O)Nc4ccc(OS(N)(=O)=O)cc4)CC3)n2)c1`, for which the Ki at Carbonic anhydrase 1 was determined as 4070 nM; on Carbonic anhydrase 2, 207 nM; at Carbonic anhydrase 4 it was 1320 nM; at Carbonic anhydrase 9, 93300 nM.
Turning to `COc1ccc(N2CCN(C(=O)Nc3ccc(OS(N)(=O)=O)cc3)CC2)cc1`, the Ki on Carbonic anhydrase 4 was 1630 nM.
Still for that read-out and setting: then `Cc1cccc(N2CCN(C(=O)Nc3ccc(OS(N)(=O)=O)cc3)CC2)c1C`, with 1090 nM.
With `CCCCCCCCN1CCN(C(=O)Nc2ccc(OS(N)(=O)=O)cc2)CC1`, the Ki on Carbonic anhydrase 1 amounted to 752 nM; on Carbonic anhydrase 2, 15.9 nM; at Carbonic anhydrase 4 it was 4800 nM; at Carbonic anhydrase 9 it was 31400 nM.
For `NS(=O)(=O)Oc1ccc(NC(=O)N2CCN(Cc3cc4ccccc4o3)CC2)cc1`, the figures for the Ki at Carbonic anhydrase 1, at Carbonic anhydrase 2 and at Carbonic anhydrase 9 were 760 nM, 36.2 nM and 32700 nM, respectively.
Take `NS(=O)(=O)Oc1ccc(NC(=O)N2CCN(c3ccccc3)CC2)cc1`: in the test listed under Homo sapiens, the Ratio Ki turned out to be 7.
With `NS(=O)(=O)Oc1ccc(NC(=O)N2CCN(c3nccc(-c4cccc(Br)c4)n3)CC2)cc1`, the Ki on Carbonic anhydrase 1 was determined as 7770 nM; at Carbonic anhydrase 2, 124 nM; at Carbonic anhydrase 4, 831 nM; at Carbonic anhydrase 9, 30500 nM.

These data come from ChEMBL document CHEMBL4715842, “Sulfonamide/sulfamate switch with a series of piperazinylureido derivatives: Synthesis, kinetic and in silico evaluation as carbonic anhydrase isoforms I, II, IV, and IX inhibitors” (Eur J Med Chem, 2020).
